According to ChEMBL document CHEMBL5042495, “Lead Optimization of Influenza Virus RNA Polymerase Inhibitors Targeting PA-PB1 Interaction” (J Med Chem, 2022):

How the values were obtained:
[1] = Cytotoxicity in dog MDCK cells assessed as reduction in cell viability incubated for 48 hrs by crystal violet staining based assay; format: toxicity, Canis lupus familiaris
[2] = system: Influenza A virus; experiment: Antiviral activity against Influenza A virus A/WSN/33(H1N1) strain infected in MDCK cells assessed as reduction in viral infection incubated for 48 hrs by crystal violet staining based assay; format: functional, organism-based

Row | SMILES | CC50 at 48 h [1] [µM] | EC50 [2] [µM]
1 | Cc1ccc2[nH]c(=O)c(CN(Cc3ccc(OC(F)F)cc3)Cc3ccc(C(C)(C)C)cc3)cc2c1 | > 5 | 0.27
2 | Cc1ccc2[nH]c(=O)c(CN(Cc3ccc(N(C)C)cc3)Cc3ccc(C(C)(C)C)cc3)cc2c1 | > 5 | 0.46
3 | COc1ccc([C@H](C)N(Cc2ccc(C(C)(C)C)cc2)Cc2cc3cc(OC)ccc3[nH]c2=O)cc1 | 4.1 | 0.12
4 | Cc1ccc2[nH]c(=O)c(CN(Cc3ccc(C(C)(C)C)cc3)[C@H](C)c3ccc(F)cc3)cc2c1 | > 5 | 
5 | Cc1ccc2cc(CNCc3ccc(F)cc3)c(=O)[nH]c2c1 | > 33 | 
6 | Cc1ccc2[nH]c(=O)c(CN(Cc3ccc(OCCO)cc3)Cc3ccc(C(C)(C)C)cc3)cc2c1 | > 5 | 
7 | Cc1ccc2[nH]c(=O)c(CN(Cc3ccc(C(C)(C)C)cc3)C(C)c3ccc(F)cc3)cc2c1 (stereo not drawn) | > 33 | 1.3
8 | COc1ccc([C@H](C)N(Cc2ccc(OC(F)(F)F)cc2)Cc2cc3cc(Cl)ccc3[nH]c2=O)cc1 | > 10 | 3.6
9 | Cc1ccc2[nH]c(=O)c(CN(CCCO)Cc3ccc(C(C)(C)C)cc3)cc2c1 | > 10 | 
10 | Cc1ccc2[nH]c(=O)c(CN(Cc3ccc(O)cc3)Cc3ccc(C(C)(C)C)cc3)cc2c1 | 4.9 | 2.1
11 | Cc1ccc2[nH]c(=O)c(CN(Cc3cccc(F)c3)Cc3ccc4ccccc4c3)cc2c1 | > 5 | 3.1
12 | COc1ccc([C@H](C)N(Cc2ccc(C(C)(C)C)cc2)Cc2cc3ccccc3[nH]c2=O)cc1 | 1.8 | 
13 | Cc1ccc2[nH]c(=O)c(CN(Cc3ccc(C(N)=O)cc3)Cc3ccc(C(C)(C)C)cc3)cc2c1 | > 5 | 
14 | CCc1ccc2[nH]c(=O)c(CN(Cc3ccc(C(C)(C)C)cc3)C(C)c3ccc(OC)cc3)cc2c1 (stereo not drawn) | > 5 | 0.22
15 | CC(c1ccc(OC(F)(F)F)c(Cl)c1)N(Cc1ccc(C(C)(C)C)cc1)Cc1cc2cc(Br)ccc2[nH]c1=O (stereo not drawn) | > 10 | 0.28
16 | Cc1ccc2[nH]c(=O)c(CN(Cc3ccc(SC(F)(F)F)cc3)Cc3ccc(C(C)(C)C)cc3)cc2c1 | > 5 | 1.3
17 | Cc1ccc2cc(CN(Cc3ccc(C(C)(C)C)cc3)Cc3cc(F)cc(F)c3)c(=O)[nH]c2c1 | > 33 | 3.5
18 | COCOc1ccc(CN(Cc2ccc(C(C)(C)C)cc2)Cc2cc3cc(C)ccc3[nH]c2=O)cc1 | 6.4 | 0.38
19 | CC(c1ccc(N(C)C)c(Cl)c1)N(Cc1ccc(C(C)(C)C)cc1)Cc1cc2cc(C3CC3)ccc2[nH]c1=O (stereo not drawn) | > 10 | 0.09

Row | SMILES | CC50 at 48 h [1] [µM] | EC50 [2] [µM]
20 | COc1ccc([C@H](C)N(Cc2ccc(C(C)(C)C)cc2)Cc2cc3cc(C(C)C)ccc3[nH]c2=O)cc1 | > 10 | 0.48
21 | Cc1ccc2[nH]c(=O)c(CN(Cc3ccc(OC(F)(F)F)cc3)Cc3ccc(C(C)(C)C)cc3)cc2c1 | > 5 | 0.49
22 | COc1ccc([C@H](C)N(Cc2ccc(C(C)(C)C)cc2)Cc2cc3cc(C4CC4)ccc3[nH]c2=O)cc1 | > 10 | 0.16
23 | Cc1ccc2cc(C(N(Cc3ccc(F)cc3)Cc3ccc(C(C)C)cc3)C(F)(F)F)c(=O)[nH]c2c1 (stereo not drawn) | > 33 | 
24 | CCc1ccc2[nH]c(=O)c(CN(Cc3cccc(F)c3)Cc3ccc4ccccc4c3)cc2c1 | > 5 | 4.1
25 | Cc1ccc2cc(CN(Cc3ccc(F)cc3)C(=O)c3ccccc3)c(=O)[nH]c2c1 | > 33 | 
26 | Cc1ccc2cc(CN(Cc3ccc(C(C)C)cc3)Cc3cccc(F)c3)c(=O)[nH]c2c1 | > 33 | 2.1
27 | Cc1ccc2[nH]c(=O)c(CN(Cc3ccc(C#N)cc3)Cc3ccc(C(C)(C)C)cc3)cc2c1 | > 5 | 0.5
28 | COc1ccc(C(C)N(Cc2ccc(C(C)(C)C)cc2)Cc2cc3cc(C)ccc3[nH]c2=O)cc1Cl (stereo not drawn) | > 10 | 0.11
29 | Cc1ccc2cc(CN(Cc3ccc(C(C)(C)C)cc3)CC3CCCCC3)c(=O)[nH]c2c1 | > 10 | 1.9
30 | CC(c1ccc(OC(F)(F)F)c(Cl)c1)N(Cc1ccc(C(C)(C)C)cc1)Cc1cc2cc(C3CC3)ccc2[nH]c1=O (stereo not drawn) | > 10 | 1.2
31 | CC(c1ccc(N(C)C)c(Cl)c1)N(Cc1ccc(OC(F)(F)F)cc1)Cc1cc2cc(Br)ccc2[nH]c1=O (stereo not drawn) | 4.7 | 
32 | Cc1ccc2cc(CN(Cc3ccc(C(C)C)cc3)Cc3ccccc3F)c(=O)[nH]c2c1 | > 33 | 1.8
33 | COc1ccc([C@H](C)N(Cc2ccc(OC(F)(F)F)cc2)Cc2cc3ccccc3[nH]c2=O)cc1 | > 10 | 1.9
34 | Cc1ccc2[nH]c(=O)c(CN(Cc3ccc(F)cc3)Cc3ccc(-c4ccccc4)cc3)cc2c1 | > 5 | 
35 | CCCCC(c1cc2ccc(C)cc2[nH]c1=O)N(Cc1ccc(F)cc1)Cc1ccc(C(C)C)cc1 (stereo not drawn) | > 33 | 
36 | Cc1ccc2[nH]c(=O)c(CN(Cc3ccc(SC(F)F)cc3)Cc3ccc(C(C)(C)C)cc3)cc2c1 | > 5 | 0.65
37 | CN(C)c1ccc(CN(Cc2ccc(C(C)(C)C)cc2)Cc2cc3cc(Br)ccc3[nH]c2=O)cc1 | > 10 | 0.53
